{"source": "paper PMC9551036", "about": "“A selective and orally bioavailable VHL-recruiting PROTAC achieves SMARCA2 degradation in vivo” (Nature Communications, 2022)", "assay": "Pharmacokinetic analyses in mouse", "assay_type": "in vivo", "conditions": "for AUC(0-t): read-out: AUC0-24h; for Vd: read-out: Vss", "protocol": "Compound concentrations in plasma aliquots were measured by quantitative HPLC-MS/MS using an internal standard. Calibration and quality control samples were prepared using blank plasma from untreated animals. Samples were precipitated with acetonitrile and injected into a HPLC system (Agilent 1200). Separation was performed by gradients of 5 mmol/L ammonium acetate pH 4.0 and acetonitrile with 0.1% formic acid on a 2.1 mm by 50 mm XBridge BEH C18 reversed-phase column with 2.5 µm particles (Waters). The HPLC was interfaced by ESI operated in positive ionisation mode to a triple quadrupole mass spectrometer (5000 or 6500+ Triple Quad System, SCIEX) operated in multiple reaction monitoring mode. Transitions were 532.4 to 432.8 m/z for BI01810284, 525.6 to 425.7 m/z for BI01802983 and 1021.6 to 624.2 m/z for BI01580883. Chromatograms were analyzed with Analyst (SCIEX) and pharmacokinetic parameters were calculated by non-compartmental analysis using BI-proprietary software.", "key": {"[1]": {"conditions": "5 mg/kg i.v., individual animals"}, "[2]": {"conditions": "30 mg/kg p.o., individual animals"}, "[3]": {"conditions": "NMRI, mouse, plasma, iv, 5 mg/kg, NMRI mice, i.v., 5 mg/kg, PK study"}, "[4]": {"conditions": "mouse, 5 mg/kg i.v., NCA, individual animals, 5 mg/kg"}, "[5]": {"conditions": "mouse, 30 mg/kg p.o., NCA, individual animals, 30 mg/kg"}}, "note": "“And” between values parts separate entries of the source, which are not always exact repeats. Equal values may be shown once. Read-outs that look alike come from different tables or passages of the source."}
{"smiles": "Cc1ncsc1-c1ccc([C@H](CCCCCN2CCC(c3ccc4c(c3)n(C3CCCC3)c3nc(=O)c5c(Br)cccc5n43)CC2)NC(=O)[C@@H]2C[C@@H](O)CN2C(=O)[C@@H](NC(=O)C2(F)CC2)C(C)(C)C)cc1", "note": "[compound 11]", "values": [{"measurement": "AUC", "setting": "[1]", "result": "40.7 µM·h and 36.8 µM·h"}, {"measurement": "AUCinf", "setting": "[1]", "result": "40.9 µM·h and 37 µM·h"}, {"measurement": "Concentration", "setting": "5 mg/kg i.v., time 0.25 h, individual animals", "result": 8050, "unit": "nM"}, {"measurement": "Concentration", "setting": "5 mg/kg i.v., time 1 h, individual animals", "result": 5350, "unit": "nM"}, {"measurement": "Concentration", "setting": "5 mg/kg i.v., time 6 h, individual animals", "result": 807, "unit": "nM"}, {"measurement": "Concentration", "setting": "5 mg/kg i.v., time 24 h, individual animals", "result": 37.6, "unit": "nM"}, {"measurement": "F", "setting": "30 mg/kg p.o. vs 5 mg/kg i.v., individual animals", "result": "4.09% and 2.11% and 6.74%"}, {"measurement": "AUC", "setting": "[2]", "result": "8.84 µM·h and 4.54 µM·h and 14.6 µM·h"}, {"measurement": "AUCinf", "setting": "[2]", "result": "8.88 µM·h and 4.57 µM·h and 14.6 µM·h"}, {"measurement": "MRT", "setting": "NMRI, mouse, plasma, iv, 5 mg/kg, NMRI mice, PK study", "result": 2.9, "unit": "h"}, {"measurement": "AUC(0-t)", "setting": "[3]", "result": 36, "unit": "µM·h"}, {"measurement": "AUC(0-inf)", "setting": "NMRI, mouse, plasma, iv, 5 mg/kg, NMRI mice, i.v., 5 mg/kg, PK study, read-out: AUC0-inf", "result": 36, "unit": "µM·h"}, {"measurement": "clearance", "setting": "NMRI, mouse, plasma, iv, 5 mg/kg, NMRI mice, i.v., 5 mg/kg, PK study, read-out: Clearance", "result": 2.2, "unit": "mL/min/kg"}, {"measurement": "Vd", "setting": "[3]", "result": 0.38, "unit": "L/kg"}, {"measurement": "MRT", "setting": "NMRI, mouse, plasma, po, 30 mg/kg, NMRI mice, PK study", "result": 5, "unit": "h"}, {"measurement": "MRT", "setting": "NMRI, mouse, plasma, po, 30 mg/kg, NMRI mice, Xenograft study", "result": 5.6, "unit": "h"}, {"measurement": "AUC(0-t)", "setting": "NMRI, mouse, plasma, po, 30 mg/kg, NMRI mice, p.o., 30 mg/kg, PK study", "result": 9.3, "unit": "µM·h"}, {"measurement": "AUC(0-inf)", "setting": "NMRI, mouse, plasma, po, 30 mg/kg, NMRI mice, p.o., 30 mg/kg, PK study, read-out: AUC0-inf", "result": 9.4, "unit": "µM·h"}, {"measurement": "bioavailability", "setting": "NMRI, mouse, plasma, po, 30 mg/kg, NMRI mice, p.o., 30 mg/kg, PK study, read-out: Bioavailability", "result": 4.3, "unit": "%"}, {"measurement": "AUC(0-t)", "setting": "NMRI, mouse, plasma, po, 30 mg/kg, NMRI mice, p.o., 30 mg/kg, Xenograft study", "result": 21, "unit": "µM·h"}, {"measurement": "AUC(0-inf)", "setting": "NMRI, mouse, plasma, po, 30 mg/kg, NMRI mice, p.o., 30 mg/kg, Xenograft study, read-out: AUC0-inf", "result": 21, "unit": "µM·h"}, {"measurement": "MRT", "setting": "NMRI, mouse, plasma, po, 100 mg/kg, NMRI mice", "result": 5.1, "unit": "h"}, {"measurement": "AUC(0-t)", "setting": "NMRI, mouse, plasma, po, 100 mg/kg, NMRI mice, p.o., 100 mg/kg", "result": 38, "unit": "µM·h"}, {"measurement": "AUC(0-inf)", "setting": "NMRI, mouse, plasma, po, 100 mg/kg, NMRI mice, p.o., 100 mg/kg, read-out: AUC0-inf", "result": 39, "unit": "µM·h"}, {"measurement": "Plasma concentration", "setting": "mouse, 5 mg/kg i.v., 0.25 h, individual animals, 5 mg/kg", "result": "9710 nM and 10400 nM"}, {"measurement": "Plasma concentration", "setting": "mouse, 5 mg/kg i.v., 1 h, individual animals, 5 mg/kg", "result": "5970 nM and 6930 nM"}, {"measurement": "Plasma concentration", "setting": "mouse, 5 mg/kg i.v., 6 h, individual animals, 5 mg/kg", "result": "1490 nM and 870 nM"}, {"measurement": "Plasma concentration", "setting": "mouse, 5 mg/kg i.v., 24 h, individual animals, 5 mg/kg", "result": "42.1 nM and 41.5 nM"}, {"measurement": "AUC", "setting": "[4]", "result": "40.7 µM·h and 36.8 µM·h"}, {"measurement": "AUCinf", "setting": "[4]", "result": "40.9 µM·h and 37 µM·h"}, {"measurement": "CL", "setting": "[4]", "result": "1.94 mL/min/kg and 2.14 mL/min/kg"}, {"measurement": "Vss", "setting": "[4]", "result": "0.386 L/kg and 0.334 L/kg"}, {"measurement": "Plasma concentration", "setting": "mouse, 30 mg/kg p.o., 0.333 h, individual animals, 30 mg/kg", "result": "172 nM and 94.6 nM and 199 nM"}, {"measurement": "Plasma concentration", "setting": "mouse, 30 mg/kg p.o., 1 h, individual animals, 30 mg/kg", "result": "438 nM and 509 nM"}, {"measurement": "Plasma concentration", "setting": "mouse, 30 mg/kg p.o., 2 h, individual animals, 30 mg/kg", "result": "577 nM and 1020 nM"}, {"measurement": "Plasma concentration", "setting": "mouse, 30 mg/kg p.o., 6 h, individual animals, 30 mg/kg", "result": "565 nM and 239 nM and 1040 nM"}, {"measurement": "Plasma concentration", "setting": "mouse, 30 mg/kg p.o., 24 h, individual animals, 30 mg/kg", "result": "6.48 nM and 10.4 nM"}, {"measurement": "AUC", "setting": "[5]", "result": "8.84 µM·h and 4.54 µM·h and 14.6 µM·h"}, {"measurement": "AUCinf", "setting": "[5]", "result": "8.88 µM·h and 4.57 µM·h and 14.6 µM·h"}, {"measurement": "F", "setting": "[5]", "result": "4.09% and 2.11% and 6.74%"}, {"measurement": "concentration at 0.25 h", "setting": "mouse, plasma, intravenous, 5 mg/kg, 5 mg/kg i.v., time 0.25 h, individual animals, read-out: Concentration", "result": 9710, "unit": "nM"}, {"measurement": "concentration at 1 h", "setting": "mouse, plasma, intravenous, 5 mg/kg, 5 mg/kg i.v., time 1 h, individual animals, read-out: Concentration", "result": 5970, "unit": "nM"}, {"measurement": "concentration at 6 h", "setting": "mouse, plasma, intravenous, 5 mg/kg, 5 mg/kg i.v., time 6 h, individual animals, read-out: Concentration", "result": 1490, "unit": "nM"}, {"measurement": "concentration at 24 h", "setting": "mouse, plasma, intravenous, 5 mg/kg, 5 mg/kg i.v., time 24 h, individual animals, read-out: Concentration", "result": 42.1, "unit": "nM"}, {"measurement": "AUC", "setting": "mouse, plasma, iv, 5 mg/kg, 5 mg/kg i.v., individual animals, read-out: AUC", "result": 30.4, "unit": "µM·h"}, {"measurement": "AUC(0-inf)", "setting": "mouse, plasma, iv, 5 mg/kg, 5 mg/kg i.v., individual animals, read-out: AUCinf", "result": 30.6, "unit": "µM·h"}, {"measurement": "concentration at 0.25 h", "setting": "mouse, plasma, iv, 5 mg/kg, mouse, 5 mg/kg i.v., 0.25 h, individual animals, read-out: Plasma concentration", "result": 8050, "unit": "nM"}, {"measurement": "concentration at 1 h", "setting": "mouse, plasma, iv, 5 mg/kg, mouse, 5 mg/kg i.v., 1 h, individual animals, read-out: Plasma concentration", "result": 5350, "unit": "nM"}, {"measurement": "concentration at 6 h", "setting": "mouse, plasma, iv, 5 mg/kg, mouse, 5 mg/kg i.v., 6 h, individual animals, read-out: Plasma concentration", "result": 807, "unit": "nM"}, {"measurement": "concentration at 24 h", "setting": "mouse, plasma, iv, 5 mg/kg, mouse, 5 mg/kg i.v., 24 h, individual animals, read-out: Plasma concentration", "result": 37.6, "unit": "nM"}, {"measurement": "AUC", "setting": "mouse, plasma, iv, 5 mg/kg, mouse, 5 mg/kg i.v., NCA, individual animals, read-out: AUC", "result": 30.4, "unit": "µM·h"}, {"measurement": "AUC(0-inf)", "setting": "mouse, plasma, iv, 5 mg/kg, mouse, 5 mg/kg i.v., NCA, individual animals, read-out: AUCinf", "result": 30.6, "unit": "µM·h"}, {"measurement": "clearance", "setting": "mouse, plasma, iv, 5 mg/kg, mouse, 5 mg/kg i.v., NCA, individual animals, read-out: CL", "result": 2.59, "unit": "mL/min/kg"}, {"measurement": "Vd", "setting": "mouse, plasma, iv, 5 mg/kg, mouse, 5 mg/kg i.v., NCA, individual animals", "result": 0.435, "unit": "L/kg"}, {"measurement": "Vd", "setting": "mouse, plasma, iv, 5 mg/kg, mouse, 5 mg/kg i.v.", "result": 0.385, "unit": "L/kg"}, {"measurement": "clearance", "setting": "mouse, plasma, iv, 5 mg/kg, mouse, 5 mg/kg i.v., read-out: clearance", "result": 2.2, "unit": "mL/min/kg"}, {"measurement": "concentration at 1 h", "setting": "mouse, plasma, oral, 30 mg/kg, 30 mg/kg p.o., time 1 h, individual animals, read-out: Concentration", "result": 337, "unit": "nM"}, {"measurement": "concentration at 2 h", "setting": "mouse, plasma, oral, 30 mg/kg, 30 mg/kg p.o., time 2 h, individual animals, read-out: Concentration", "result": 874, "unit": "nM"}, {"measurement": "concentration at 24 h", "setting": "mouse, plasma, oral, 30 mg/kg, 30 mg/kg p.o., time 24 h, individual animals, read-out: Concentration", "result": 8.75, "unit": "nM"}, {"measurement": "bioavailability", "setting": "mouse, plasma, oral, 30 mg/kg, mouse, 30 mg/kg p.o. vs 5 mg/kg i.v., read-out: F% p.o. (oral bioavailability)", "result": 3, "unit": "%"}, {"measurement": "concentration at 1 h", "setting": "mouse, plasma, po, 30 mg/kg, mouse, 30 mg/kg p.o., 1 h, individual animals, read-out: Plasma concentration", "result": 337, "unit": "nM"}, {"measurement": "concentration at 2 h", "setting": "mouse, plasma, po, 30 mg/kg, mouse, 30 mg/kg p.o., 2 h, individual animals, read-out: Plasma concentration", "result": 874, "unit": "nM"}, {"measurement": "concentration at 24 h", "setting": "mouse, plasma, po, 30 mg/kg, mouse, 30 mg/kg p.o., 24 h, individual animals, read-out: Plasma concentration", "result": 8.75, "unit": "nM"}]}
